Measurements: article PMC8413292, “Small-molecule polymerase inhibitor protects non-human primates from measles and reduces shedding” (Nature Communications, 2021)
Values joined by “and” are separate entries in the source; they are usually repeats but may differ in a detail not shown here. Identical values can stand only once.

Experiments:
[1] = tested on: MV/FrankfurtMain.DEU/17.11 (genotype D8); experiment: Throat swab virus titers (shed virus, limited dilution); format: in vivo, squirrel monkeys (Saimiri sciureus)
Description: White blood cell counts, viral load quantification in PBMCs, and quantification of neutralizing antibody titers were performed as follows: for white blood cell counts, blood was diluted 1:100 in 3% acetic acid and cells were counted using a Neubauer chamber. For viral load quantification in PBMCs, blood was centrifuged at 3000 rpm for 15 min and serum was frozen at −20 °C until further use. Red blood cell lysis was performed and the remaining PBMCs were counted using a Neubauer chamber. Viral titers in PBMCs were quantified in quadruplicates using limited dilution method and calculated as TCID50/10^6 PBMCs. Neutralizing antibody titers were quantified by incubating MeV with 2-fold serial dilutions of the respective serum for 20 min at room temperature in quadruplicates. Vero/hSLAM cells were added and incubated for 3 days at 37 °C. Neutralizing antibody titers are expressed as the reciprocal of the highest serum dilution showing no signs of infection. For virus titration from throat swabs, swabs were placed in 150 μl DMEM with 3% penicillin/streptomycin and the titer was quantified by limited dilution method.

MeV N gene RNA = experiment: Quantitative RT-PCR of MeV N-gene RNA in lymph nodes; format: in vivo; conditions: for MeV N-gene RNA levels in lymph nodes versus untreated: 21 days post-infection
Description: Organs (21 days post-infection) and PBMCs (twice a week) were frozen in RNAlater (Qiagen) at −80 °C until further processing. For the deceased animal, organs were frozen in RNAlater at the day of death. Lymph nodes were thawed on ice, transferred to TRIzol (ambion life technologies) and homogenized using a tissue homogenizer. Total RNA of lymph nodes and PBMCs was extracted following the TRIzol manufacturer’s protocol. RNA (1000 ng for lymph nodes; 110 ng for PBMCs) was then subjected to reverse transcription using random hexamer primers and Superscript III reverse transcriptase in accordance with the manufacturer’s protocols. Subsequent quantitative PCR (qPCR) was carried out using primer pairs specific for a fragment in the MeV N gene[23] or GAPDH gene(Supplementary Table 2) and the PowerUp SYBR Green Master Mix (Thermo Fisher Scientific) in an Applied Biosystems 7500 Real-Time PCR system. Samples were normalized for GAPDH. The comparative (ΔΔCt) Ct method was applied to determine relative amounts of N-encoding RNA present in samples from treated animals compared to those obtained from untreated control animals (lymph nodes) or compared to those obtained from untreated control animals on day 7 post-infection (peak PBMC virus titer).

## Cn1nc(C(F)(F)F)cc1C(=O)Nc1ccc(S(=O)(=O)N2CCCC[C@H]2CCN2CCOCC2)cc1 [ERDRP-0519]
[1]; day 7 therapeutic group, within 72 h of treatment initiation
  drop of shed virus titers (throat swab) compared to untreated animals: dropped significantly (p = 0.0199) by two orders of magnitude
[1]; prophylactic, Row 1 (0 d)
  Swab Titration, group mean (Mean 2): 0 log10(TCID50/ml)
[1]; prophylactic, Row 2 (3 d)
  Swab Titration, group mean (Mean 2): 0 log10(TCID50/ml)
[1]; prophylactic, Row 3 (7 d)
  Swab Titration, group mean (Mean 2): 0 log10(TCID50/ml)
[1]; prophylactic, Row 4 (10 d)
  Swab Titration, group mean (Mean 2): 0.4498 log10(TCID50/ml)
[1]; prophylactic, Row 5 (14 d)
  Swab Titration, group mean (Mean 2): 0 log10(TCID50/ml)
[1]; prophylactic, Row 6 (17 d)
  Swab Titration, group mean (Mean 2): 0.1165 log10(TCID50/ml)
[1]; prophylactic, time 10 d
  Viral titers (throat swab), individual animals: 2.699 log10(TCID50/ml)
[1]; prophylactic, time 17 d
  Viral titers (throat swab), individual animals: 0.699 log10(TCID50/ml)
[1]; therapeutic (d3), Row 1 (0 d)
  Swab Titration, group mean (Mean 2): 0 log10(TCID50/ml)
[1]; therapeutic (d3), Row 2 (3 d)
  Swab Titration, group mean (Mean 2): 0 log10(TCID50/ml)
[1]; therapeutic (d3), Row 3 (7 d)
  Swab Titration, group mean (Mean 2): 0.7332 log10(TCID50/ml)
[1]; therapeutic (d3), Row 4 (10 d)
  Swab Titration, group mean (Mean 2): 1.153 log10(TCID50/ml)
[1]; therapeutic (d3), Row 5 (14 d)
  Swab Titration, group mean (Mean 2): 0 log10(TCID50/ml)
[1]; therapeutic (d3), Row 6 (17 d)
  Swab Titration, group mean (Mean 2): 0 log10(TCID50/ml)
[1]; therapeutic (d3), time 7 d
  Viral titers (throat swab), individual animals: 0.699 log10(TCID50/ml) and 2 log10(TCID50/ml) and 1.699 log10(TCID50/ml)
[1]; therapeutic (d3), time 10 d
  Viral titers (throat swab), individual animals: 1.477 log10(TCID50/ml) (3×) and 2.477 log10(TCID50/ml)
[1]; therapeutic (d7), Row 1 (0 d)
  Swab Titration, group mean (Mean 2): 0 log10(TCID50/ml)
[1]; therapeutic (d7), Row 2 (3 d)
  Swab Titration, group mean (Mean 2): 0 log10(TCID50/ml)
[1]; therapeutic (d7), Row 3 (7 d)
  Swab Titration, group mean (Mean 2): 2.207 log10(TCID50/ml)
[1]; therapeutic (d7), Row 4 (10 d)
  Swab Titration, group mean (Mean 2): 0.9798 log10(TCID50/ml)
[1]; therapeutic (d7), Row 5 (14 d)
  Swab Titration, group mean (Mean 2): 0 log10(TCID50/ml)
[1]; therapeutic (d7), Row 6 (17 d)
  Swab Titration, group mean (Mean 2): 0 log10(TCID50/ml)
[1]; therapeutic (d7), time 7 d
  Viral titers (throat swab), individual animals: 3.477 log10(TCID50/ml) and 2.699 log10(TCID50/ml) (2×) and 2.176 log10(TCID50/ml) (2×)
[1]; therapeutic (d7), time 10 d
  Viral titers (throat swab), individual animals: 1.699 log10(TCID50/ml) and 1.477 log10(TCID50/ml) and 2.699 log10(TCID50/ml)
[1]; untreated vs. prophylactic, Row 1 (0 d)
  Swab Titration, Mean Diff, untreated vs. treated: 0 log10(TCID50/ml)
[1]; untreated vs. prophylactic, Row 2 (3 d)
  Swab Titration, Mean Diff, untreated vs. treated: 0 log10(TCID50/ml)
[1]; untreated vs. prophylactic, Row 3 (7 d)
  Swab Titration, Mean Diff, untreated vs. treated: 1.98 log10(TCID50/ml)
[1]; untreated vs. prophylactic, Row 4 (10 d)
  Swab Titration, Mean Diff, untreated vs. treated: 2.423 log10(TCID50/ml)
[1]; untreated vs. prophylactic, Row 5 (14 d)
  Swab Titration, Mean Diff, untreated vs. treated: 0 log10(TCID50/ml)
[1]; untreated vs. prophylactic, Row 6 (17 d)
  Swab Titration, Mean Diff, untreated vs. treated: 0.1302 log10(TCID50/ml)
[1]; untreated vs. therapeutic (d3), Row 1 (0 d)
  Swab Titration, Mean Diff, untreated vs. treated: 0 log10(TCID50/ml)
[1]; untreated vs. therapeutic (d3), Row 2 (3 d)
  Swab Titration, Mean Diff, untreated vs. treated: 0 log10(TCID50/ml)
[1]; untreated vs. therapeutic (d3), Row 3 (7 d)
  Swab Titration, Mean Diff, untreated vs. treated: 1.247 log10(TCID50/ml)
[1]; untreated vs. therapeutic (d3), Row 4 (10 d)
  Swab Titration, Mean Diff, untreated vs. treated: 1.72 log10(TCID50/ml)
[1]; untreated vs. therapeutic (d3), Row 5 (14 d)
  Swab Titration, Mean Diff, untreated vs. treated: 0 log10(TCID50/ml)
[1]; untreated vs. therapeutic (d3), Row 6 (17 d)
  Swab Titration, Mean Diff, untreated vs. treated: 0.2467 log10(TCID50/ml)
[1]; untreated vs. therapeutic (d7), Row 1 (0 d)
  Swab Titration, Mean Diff, untreated vs. treated: 0 log10(TCID50/ml)
[1]; untreated vs. therapeutic (d7), Row 2 (3 d)
  Swab Titration, Mean Diff, untreated vs. treated: 0 log10(TCID50/ml)
[1]; untreated vs. therapeutic (d7), Row 3 (7 d)
  Swab Titration, Mean Diff, untreated vs. treated: -0.2268 log10(TCID50/ml)
[1]; untreated vs. therapeutic (d7), Row 4 (10 d)
  Swab Titration, Mean Diff, untreated vs. treated: 1.893 log10(TCID50/ml)
[1]; untreated vs. therapeutic (d7), Row 5 (14 d)
  Swab Titration, Mean Diff, untreated vs. treated: 0 log10(TCID50/ml)
[1]; untreated vs. therapeutic (d7), Row 6 (17 d)
  Swab Titration, Mean Diff, untreated vs. treated: 0.2467 log10(TCID50/ml)
MeV N gene RNA; prophylactic
  Lymph node fold difference, group mean (Mean 2): 0.06859
  fold difference (Lymph node MeV N RNA), individual animals: 0.002631 and 0.0102 and 0.1018 and 0.01292 and 0.2776 and 0.00638
MeV N gene RNA; prophylactic group, p = 0.0295
  MeV N-gene RNA levels in lymph nodes versus untreated: significantly decreased
MeV N gene RNA; therapeutic (d3)
  Lymph node fold difference, group mean (Mean 2): 0.1137
  fold difference (Lymph node MeV N RNA), individual animals: 0.5644 and 0.005805 and 0.02288 and 0.01111 and 0.0007117 and 0.07727
MeV N gene RNA; therapeutic (d7)
  Lymph node fold difference, group mean (Mean 2): 0.7008
  fold difference (Lymph node MeV N RNA), individual animals: 1.441 and 0.8274 and 0.2474 and 0.8349 and 0.2786 and 0.5749
MeV N gene RNA; therapeutic day 3 group, p = 0.0346
  MeV N-gene RNA levels in lymph nodes versus untreated: significantly decreased
MeV N gene RNA; untreated vs. prophylactic
  Lymph node fold difference, Mean Diff,: 1.828
MeV N gene RNA; untreated vs. therapeutic (d3)
  Lymph node fold difference, Mean Diff,: 1.783
MeV N gene RNA; untreated vs. therapeutic (d7)
  Lymph node fold difference, Mean Diff,: 1.196
